In brackets after ≈: the same amount, converted by molar mass. Like-named read-outs stand apart in the source and are kept apart here.
Key:
[1] = cited from earlier work
[2] = cited from earlier work; for Half life: in vivo; for Half life: short or long acting: in words
[3] = cited from earlier work; remark: listed apart in the source
[4] = cited from earlier work; remark: listed apart in the source
[5] = tested on: proliferating hemangioma cells; assay: Experiment 7: different ACEi and beta blockers on one primary cell line, MTT; format: cell-based, human; conditions: for inhibition of proliferating hemangioma cells: 1 μM and 10 μM; for Results Summary: 72 hours, one cell line; for inhibition at 1 µM / inhibition at 10 µM: Homo sapiens, 72 h, read-out: Inhibition vs. Cells + Adjuvant at 72 Hours
Experimental: (§1) An in vitro cell culture model of infantile hemangioma was developed to assess the impact of renin-angiotensin system inhibitors on cellular proliferation. A primary cell line of proliferating infantile hemangioma cells, including haemangioma stem cells, was derived from a tissue biopsy obtained from patients during the proliferating phase of the disease. The primary cell lines are cultured in 25 cm^2 flasks using standard culture media and conditions. The cultured cells are used to seed 96-well plates with a seed cell concentration of 2500 or 5000 cells per well, with additional culture media (200 μL). All studies are performed in triplicate.
The plates are incubated overnight to allow cell adherence to the wells. The wells are photographed to confirm cell adherence and confluency. The appropriate drug(s) to be examined are subsequently added to the wells. […] The media is aspirated from each well and stored frozen for possible future analyses. Media is added to the wells and an MTT determination is undertaken according to standard protocols.
(§2) From the triplicate incubations of each drug concentration at each time, as well as for all controls, the mean±standard deviation is calculated. The net survival (optical density value) is calculated by subtracting the appropriate blank mean value from each cell culture. From the MTT data, the percentage of survival of cells in the presence of each concentration of drug after each time of culturing is determined.
Briefly, cells were seeded in 96-well plates at concentrations of 2500 cells/well in triplicate for each drug and drug combination. […] All plates were performed in triplicate. Beta blockers used in the study were (±)-propranolol, R-propranolol, S-propranolol, timolol, and betaxalol.

rabbit lung ACE = molecular target: T1, rabbit lung ACE (Oryctolagus cuniculus, UniProt P12822); conditions: vs rabbit lung ACE, cited from earlier work
T1 construct: rabbit lung ACE; from tissue; host or cells: rabbit lung
T1 sequence (P12822 34-1310): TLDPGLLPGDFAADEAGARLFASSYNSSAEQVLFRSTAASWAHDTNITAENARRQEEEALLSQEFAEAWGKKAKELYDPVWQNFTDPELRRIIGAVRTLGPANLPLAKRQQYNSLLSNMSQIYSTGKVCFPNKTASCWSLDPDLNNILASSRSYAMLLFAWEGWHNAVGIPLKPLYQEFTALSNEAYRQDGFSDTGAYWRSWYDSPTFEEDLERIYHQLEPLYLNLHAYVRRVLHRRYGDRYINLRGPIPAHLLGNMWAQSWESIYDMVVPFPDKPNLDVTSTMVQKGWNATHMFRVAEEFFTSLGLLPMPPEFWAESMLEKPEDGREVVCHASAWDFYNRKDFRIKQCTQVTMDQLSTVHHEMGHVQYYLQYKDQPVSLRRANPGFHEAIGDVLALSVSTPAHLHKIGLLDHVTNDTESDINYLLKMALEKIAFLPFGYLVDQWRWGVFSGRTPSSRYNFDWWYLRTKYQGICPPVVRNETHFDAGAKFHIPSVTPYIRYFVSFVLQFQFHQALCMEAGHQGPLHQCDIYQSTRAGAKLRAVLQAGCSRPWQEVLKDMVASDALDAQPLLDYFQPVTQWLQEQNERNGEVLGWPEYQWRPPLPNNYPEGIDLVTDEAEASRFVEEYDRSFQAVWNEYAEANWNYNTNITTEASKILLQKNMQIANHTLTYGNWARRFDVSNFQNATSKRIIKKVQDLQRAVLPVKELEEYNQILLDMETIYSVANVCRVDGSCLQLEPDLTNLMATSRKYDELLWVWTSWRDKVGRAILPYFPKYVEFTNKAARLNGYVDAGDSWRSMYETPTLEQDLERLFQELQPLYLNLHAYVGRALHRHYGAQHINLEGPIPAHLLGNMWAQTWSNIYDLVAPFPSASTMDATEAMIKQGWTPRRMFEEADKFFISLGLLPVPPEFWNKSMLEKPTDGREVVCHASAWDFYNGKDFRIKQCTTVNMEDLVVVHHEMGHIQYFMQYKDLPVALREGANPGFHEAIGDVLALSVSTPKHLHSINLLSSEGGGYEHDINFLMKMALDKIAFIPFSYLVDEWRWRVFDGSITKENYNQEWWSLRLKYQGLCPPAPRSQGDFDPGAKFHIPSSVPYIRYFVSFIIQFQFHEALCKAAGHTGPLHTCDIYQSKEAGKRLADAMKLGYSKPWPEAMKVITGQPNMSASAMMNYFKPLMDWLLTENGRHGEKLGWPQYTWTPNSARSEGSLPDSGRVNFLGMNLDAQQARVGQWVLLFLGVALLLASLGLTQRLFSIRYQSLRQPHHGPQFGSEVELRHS

brush border ACE = molecular target: T2, brush border ACE (Homo sapiens, UniProt P12821); conditions: cited from earlier work
T2 construct: brush border ACE; from tissue
T2 sequence (P12821 30-1306): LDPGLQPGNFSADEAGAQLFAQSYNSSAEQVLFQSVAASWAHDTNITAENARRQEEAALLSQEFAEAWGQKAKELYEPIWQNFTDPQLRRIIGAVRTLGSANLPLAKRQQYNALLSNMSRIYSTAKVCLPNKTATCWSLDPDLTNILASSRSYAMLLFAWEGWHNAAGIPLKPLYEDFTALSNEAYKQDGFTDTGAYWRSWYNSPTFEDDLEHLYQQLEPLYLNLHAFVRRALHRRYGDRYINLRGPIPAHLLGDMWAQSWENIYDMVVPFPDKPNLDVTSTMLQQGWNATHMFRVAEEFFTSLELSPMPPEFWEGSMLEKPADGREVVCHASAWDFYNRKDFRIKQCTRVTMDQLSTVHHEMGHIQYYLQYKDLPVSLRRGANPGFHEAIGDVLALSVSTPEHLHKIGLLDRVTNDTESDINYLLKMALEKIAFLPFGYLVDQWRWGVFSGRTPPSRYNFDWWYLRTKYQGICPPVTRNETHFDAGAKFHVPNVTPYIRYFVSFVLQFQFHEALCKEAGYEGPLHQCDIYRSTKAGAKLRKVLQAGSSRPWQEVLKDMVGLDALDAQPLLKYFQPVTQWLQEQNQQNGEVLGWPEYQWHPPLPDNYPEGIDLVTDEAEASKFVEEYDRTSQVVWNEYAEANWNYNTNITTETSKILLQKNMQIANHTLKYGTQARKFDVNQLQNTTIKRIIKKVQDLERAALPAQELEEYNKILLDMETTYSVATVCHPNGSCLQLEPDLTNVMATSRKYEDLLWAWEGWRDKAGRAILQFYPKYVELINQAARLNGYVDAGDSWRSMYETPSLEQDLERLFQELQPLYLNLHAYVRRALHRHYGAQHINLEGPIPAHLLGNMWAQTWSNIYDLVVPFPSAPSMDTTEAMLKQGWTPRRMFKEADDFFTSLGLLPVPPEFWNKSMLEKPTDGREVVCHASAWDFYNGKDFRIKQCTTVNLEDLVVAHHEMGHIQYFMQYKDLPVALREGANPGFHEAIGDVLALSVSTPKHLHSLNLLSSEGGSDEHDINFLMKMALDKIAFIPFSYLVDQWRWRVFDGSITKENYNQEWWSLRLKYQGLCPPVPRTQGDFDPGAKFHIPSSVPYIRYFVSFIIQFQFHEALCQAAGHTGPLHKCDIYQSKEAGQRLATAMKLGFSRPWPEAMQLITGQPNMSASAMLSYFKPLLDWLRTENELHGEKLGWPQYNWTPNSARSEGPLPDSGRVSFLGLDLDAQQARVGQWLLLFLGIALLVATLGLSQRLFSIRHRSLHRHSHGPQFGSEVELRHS

[6] = tested on: flat or minimally raised IH lesions; conditions: cited from earlier work
superficial IH = conditions: cited from earlier work
proliferating IH [7] = conditions: topical 1% ointments; cited from earlier work
proliferating IH [8] = conditions: cited from earlier work
IH = conditions: oral; 30 patients with IH; cited from earlier work
[9] = Franz-diffusion cell permeation through skin-model membranes; conditions: 120 hours
Description: Firstly, a custom-built Franz-diffusion cell (FIG. 34 A) was constructed in-house, consisting of a donor and receiver chamber, and fitted with a water-jacket to enable the temperature to be controlled to mimic physiological conditions. […] This model system was used as a screening tool to increase the success of subsequent permeation studies performed on excised animal skin.
The system was validated by investigating the permeation of a water-soluble fluorescent dye, carboxyfluorescein, which has poor skin penetration properties. […] As a comparison, carboxyfluorescein was encapsulated into deformable liposomes with a phospholipid membrane composition of soy phosphatidylcholine (Phospholipon® 90G) and polysorbate 80 in an 80:20 mol % ratio. […]
The carboxyfluorescein emulgel (2 mL) was placed in the receiver chamber of the Franz-diffusion cell fitted with a Strat-M® membrane, and permeation of fluorescein across the membrane was monitored over time and quantified by fluoresce spectroscopy. […]
The permeation of propranolol through skin-model membranes in vitro was assessed. A 2-mL volume of the appropriate vehicle (cream vs. emulsion gel) was placed in the donor chamber of the Franz-diffusion cell, and the concentration of propranolol in the receiver chamber was determined by UV-Vis spectroscopy at frequent time intervals over 60 hours.

[10] = tested on: proliferating hemangioma cell lines (n=9); assay: Example 6: single agents and combinations on nine primary cell lines, MTT, CompuSyn combination index; format: cell-based, human; conditions: 1 to 10 μM; 72 hours; n=9
Experimental: as §1
The plates are incubated overnight to allow cell adherence to the wells. The wells are photographed to confirm cell adherence and confluency. The appropriate drug(s) to be examined are subsequently added to the wells. After 24 hours, one set of plates (experimental and blank) is stopped. The media is aspirated from each well and stored frozen for possible future analyses. Media is added to the wells and an MTT determination is undertaken according to standard protocols. This is repeated at 48 and 72 hours.
as §2
A study was undertaken using combinations of ACE inhibitors, beta blockers and angiotensin II type 2 receptor blockers to inhibit proliferating hemangioma cells. […] Patient histories pertaining to each cell line is described in Table 5.
The experimental protocol was performed as per Example 1. Briefly, cells were seeded in 96-well plates at concentrations of 2500 cells/well in triplicate for each drug and drug combination. Drug(s) were added to each well 24 hours after seeding and re-dosed every 24 hours. Cell viability was assessed by MTT assay after 24, 48, and 72 hours. All plates were performed in triplicate. Drugs were assessed alone and in combination, as described in Table 6. Propranolol was used as a model beta blocker, cilazapril as a model ACE inhibitor, and SMM02 (L-159686) as a model AT2Ri. Synergy was measured using the CompuSyn open-source software protocol for quantifying synergism and antagonism that uses the median-effect equation and mass-action laws to generate a combination index (www.compusyn.com). Synergism, additive effects and antagonism are defined as a CI<1, CI=1, and CI>1, respectively.

[11] = tested on: proliferating hemangioma cells; assay: Example 5: R- and S-beta blockers alone and with cilazapril, MTT; format: cell-based, human
Experimental: An in vitro cell culture model of infantile hemangioma was developed to assess the impact of renin-angiotensin system inhibitors on cellular proliferation. A primary cell line of proliferating infantile hemangioma cells, including haemangioma stem cells, was derived from a tissue biopsy obtained from patients during the proliferating phase of the disease. The primary cell lines are cultured in 25 cm^2 flasks using standard culture media and conditions. The cultured cells are used to seed 96-well plates with a seed cell concentration of 2500 or 5000 cells per well, with additional culture media (200 μL). All studies are performed in triplicate. The plates are incubated overnight to allow cell adherence to the wells. The wells are photographed to confirm cell adherence and confluency. The appropriate drug(s) to be examined are subsequently added to the wells. After 24 hours, one set of plates (experimental and blank) is stopped. The media is aspirated from each well and stored frozen for possible future analyses. Media is added to the wells and an MTT determination is undertaken according to standard protocols. This is repeated at 48 and 72 hours. From the triplicate incubations of each drug concentration at each time, as well as for all controls, the mean±standard deviation is calculated. The net survival (optical density value) is calculated by subtracting the appropriate blank mean value from each cell culture. From the MTT data, the percentage of survival of cells in the presence of each concentration of drug after each time of culturing is determined. The experimental protocol was performed as per Example 1. Briefly, cells were seeded in 96-well plates at concentrations of 2500 cells/well in triplicate for each drug and drug combination. Drug(s) were added to each well 24 hours after seeding and re-dosed every 24 hours. Cell viability was assessed by MTT assay after 24, 48, and 72 hours. All plates were performed in triplicate. […] Timolol and propranolol were used as model beta blockers and cilazapril as a model ACE inhibitor.

Lisinopril
Log P ([1]; Table 1): −1.01 | log P [1]: −1.01 | Half life [2]: 12.6 h | Half life: short or long acting [2]: Long acting | Solubility [3]: 97 mg/mL | pKa [4]: 3.2 | pKa ([4]; second value): 10.2 | Estimated Optimal Dosage Range [5]: 1 to 10 µM | Inhibition vs. Cells + Adjuvant at 72 Hours ([5]; 1 μM): 1 μM - <0% | inhibition of proliferating hemangioma cells [5]: no effect | Inhibition vs. Cells + Adjuvant at 72 Hours ([5]; 10 μM): 10 μM -1.67% | Results Summary [5]: Non- | IC50 (rabbit lung ACE; unit inferred): 3.3 nM

CCOC(=O)[C@H](CCc1ccccc1)N[C@@H](C)C(=O)N1[C@H](C(=O)O)C[C@@H]2CCC[C@@H]21 [Ramipril]
Half life [2]: 2 to 4 h (Ramipril) | Half life: short or long acting [2]: Long acting | Solubility [3]: 0.0035 mg/mL (≈ 8.4 µM) | pKa [4]: 3.75 | pKa ([4]; second value): 5.2 | inhibition of proliferating hemangioma cells [5]: good and similar level of inhibition | Results Summary [5]: Responder | inhibition at 1 µM ([5]; 1 μM): < 0% | inhibition at 10 µM ([5]; 10 μM): 68.1% | Complete ACE inhibition lasting (brush border ACE; after single 10 μM dose): inhibition lasting 15 days | IC50 (brush border ACE; vs brush border ACE): 5 nM

CCC(=O)O[C@]1(C(=O)CCl)[C@@H](C)C[C@H]2[C@@H]3CCC4=CC(=O)C=C[C@]4(C)[C@@]3(F)[C@@H](O)C[C@@]21C [clobetasol propionate]
good response ([6]; topical 0.05%, 4 to 21 weeks): 35% | no response ([6]; topical 0.05%, 4 to 21 weeks): 27% | partial response ([6]; topical 0.05%, 4 to 21 weeks): 38% | adverse effects ([6]; topical ultrapotent corticosteroid): localised atrophy, hypopigmentation, hypertrichosis and infection

O=C(O)[C@H](CCc1ccccc1)N[C@H]1CCCN2CCC[C@@H](C(=O)O)N2C1=O [cilazaprilat]
Half life [2]: 9 h (cilazaprilat) | IC50 (rabbit lung ACE): 1.93 nM

CC(C)Cn1cnc2c(N)nc3ccccc3c21 [imiquimod, Imiquimod]
time within which all cases are improved (superficial IH; 5% cream): ≤ 4 months | side effects (superficial IH; topical): severe local inflammatory reactions leading to disfiguring scars

CC(C)NCC(O)COc1cccc2ccccc12 (racemic) [(±) Propranolol, Propranolol]
good response (proliferating IH [7]): 57-59% | good to modest response rates (proliferating IH [7]): 75-90% | modest response (proliferating IH [7]): 26-33% | no response (proliferating IH [7]): 10-15% | Results Summary [5]: Responder | inhibition at 1 µM ([5]; 1 μM): < 0% | inhibition at 10 µM ([5]; 10 μM): 47.5% | patients treated showing an improvement (proliferating IH [8]; oral low dose, within 5 weeks): approximately 88% | patients successfully treated (proliferating IH [8]; oral, overall): approximately 60% | clinical improvement versus captopril (IH): significantly better and faster

CCOC(=O)[C@H](CCc1ccccc1)N[C@H]1CCc2ccccc2N(CC(=O)O)C1=O [Benazepril]
Half life: short or long acting [2]: Long acting | Solubility ([3]; pH 7): 1.76 mg/L (pH 7) | pKa [4]: 3.5 | pKa ([4]; second value): 5.4 | IC50 (rabbit lung ACE): 425 nM

carboxyfluorescein
permeation of carboxyfluorescein through the skin-model membrane [9]: No permeation | log P [1]: 2.9

CC(C)NCC(O)COc1cccc2ccccc12 (stereo not drawn) [S(−) Propranolol, S-propranolol]
dose-response across all cell lines [10]: typical dose-response | Estimated Optimal Dosage Range [5]: 1 to 10 µM | Inhibition vs. Cells + Adjuvant at 72 Hours ([5]; 1 μM): 1 μM - No - 2.07% | Inhibition vs. Cells + Adjuvant at 72 Hours ([5]; 10 μM): 10 μM - Response - 45.68% | Results Summary [5]: Responder | individual isomers compared with the racemic mixture ([11]; alone): as effective alone as the racemic mixture | attenuating hemangioma cell proliferation, propranolol vs timolol enantiomers ([11]; particularly at 1-5 μM): superior to R- and S-timolol

Source: patent US20230090708A1, “METHODS AND COMPOSITIONS FOR THE TREATMENT OF HEMANGIOMA” (MASSEY VENTURES LIMITED, priority 2020, published 2023)
